For 5 compounds, EC50 results are on record in patent US20230346961A1, “GLP-1 AND GIP RECEPTOR CO-AGONISTS” (Novo Nordisk A/S, priority 2020, published 2023).

Starred links: 1 amine or outer side, 2 acyl side, 3 side chain; linkers in the order of their positions; H or OH if unused. Non-standard residues stand in square brackets, D forms with d. Residues, ends and D or L forms follow the SMILES beside them. Groups on a side chain read outwards from the residue. *: point of attachment. C20 diacid = O=C(O)CCCCCCCCCCCCCCCCCCC(=O)*; γGlu = O=C(O)[C@H](CCC(=O)[*:2])N[*:1]; εLys = N[C@@H](CCCCN[*:1])C(=O)[*:2]; Trx = NC[C@H]1CC[C@H](C(=O)O)CC1; AEEA = NCCOCCOCC(=O)O; Aib = CC(C)(N)C(=O)O

In assay [1] the target is T1, mouse GLP-1 receptor (Mus musculus, UniProt O35659).
T1 sequence (O35659 22-463): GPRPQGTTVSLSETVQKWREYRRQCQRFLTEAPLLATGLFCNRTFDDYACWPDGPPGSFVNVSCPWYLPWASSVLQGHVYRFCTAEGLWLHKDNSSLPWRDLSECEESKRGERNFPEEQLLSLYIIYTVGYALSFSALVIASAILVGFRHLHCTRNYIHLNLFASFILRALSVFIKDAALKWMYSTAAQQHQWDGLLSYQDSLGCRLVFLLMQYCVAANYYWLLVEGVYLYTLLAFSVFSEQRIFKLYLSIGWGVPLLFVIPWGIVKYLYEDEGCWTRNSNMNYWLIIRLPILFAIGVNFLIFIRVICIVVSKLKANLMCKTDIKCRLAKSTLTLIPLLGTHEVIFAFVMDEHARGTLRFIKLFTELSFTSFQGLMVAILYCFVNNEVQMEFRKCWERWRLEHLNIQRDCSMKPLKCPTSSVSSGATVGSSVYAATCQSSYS

Assay [2] has as its target T2, mouse GIP receptor (Mus musculus, UniProt Q0P543).
T2 sequence (Q0P543 19-460): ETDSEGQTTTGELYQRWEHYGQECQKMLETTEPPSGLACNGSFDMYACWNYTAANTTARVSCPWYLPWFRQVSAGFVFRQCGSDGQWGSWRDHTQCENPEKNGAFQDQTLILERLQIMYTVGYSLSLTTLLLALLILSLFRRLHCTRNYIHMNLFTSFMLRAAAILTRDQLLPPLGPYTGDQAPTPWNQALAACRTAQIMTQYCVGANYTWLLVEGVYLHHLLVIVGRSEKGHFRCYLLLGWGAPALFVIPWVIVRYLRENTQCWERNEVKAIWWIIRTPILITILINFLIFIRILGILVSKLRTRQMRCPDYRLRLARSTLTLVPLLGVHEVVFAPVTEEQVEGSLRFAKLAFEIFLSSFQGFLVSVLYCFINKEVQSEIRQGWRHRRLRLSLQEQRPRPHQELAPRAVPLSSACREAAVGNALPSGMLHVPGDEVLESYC
Kind of assay: cell-based.

The target in assay [3] is human GLP-1 receptor (Homo sapiens, UniProt P43220). Kind of assay: cell-based. Conditions: hGLP-1R.
Chain of human GLP-1 receptor (P43220 24-463): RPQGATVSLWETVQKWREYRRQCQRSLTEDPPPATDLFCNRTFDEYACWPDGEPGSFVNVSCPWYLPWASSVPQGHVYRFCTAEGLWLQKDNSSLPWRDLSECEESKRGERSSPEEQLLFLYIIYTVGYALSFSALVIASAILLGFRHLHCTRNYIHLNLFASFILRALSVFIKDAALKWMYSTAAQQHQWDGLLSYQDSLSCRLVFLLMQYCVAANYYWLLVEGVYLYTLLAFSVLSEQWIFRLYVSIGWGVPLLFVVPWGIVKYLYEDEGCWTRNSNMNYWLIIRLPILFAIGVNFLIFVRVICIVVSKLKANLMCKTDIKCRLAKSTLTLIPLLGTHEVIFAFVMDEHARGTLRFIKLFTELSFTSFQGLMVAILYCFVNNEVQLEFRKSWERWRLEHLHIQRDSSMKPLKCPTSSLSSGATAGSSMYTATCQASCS

Take `CC[C@H](C)[C@H](NC(=O)[C@H](CO)NC(=O)[C@H](Cc1ccc(O)cc1)NC(=O)[C@H](CC(=O)O)NC(=O)[C@H](CO)NC(=O)[C@@H](NC(=O)[C@H](Cc1ccccc1)NC(=O)[C@@H](NC(=O)CNC(=O)[C@H](CCC(=O)O)NC(=O)C(C)(C)NC(=O)[C@@H](N)Cc1ccc(O)cc1)[C@@H](C)O)[C@@H](C)O)C(=O)N[C@@H](Cc1ccc(O)cc1)C(=O)N[C@@H](CC(C)C)C(=O)N[C@@H](CCC(=O)O)C(=O)N[C@@H](CCC(=O)O)C(=O)N[C@@H](CCC(N)=O)C(=O)N[C@@H](C)C(=O)N[C@@H](C)C(=O)NC(C)(C)C(=O)N[C@@H](CCCCNC(=O)COCCOCCNC(=O)COCCOCCNC(=O)CC[C@H](NC(=O)[C@H]1CC[C@H](CNC(=O)CCCCCCCCCCCCCCCCCCC(=O)O)CC1)C(=O)O)C(=O)N[C@@H](Cc1ccccc1)C(=O)N[C@H](C(=O)N[C@@H](CC(N)=O)C(=O)N[C@@H](Cc1c[nH]c2ccccc12)C(=O)N[C@@H](CC(C)C)C(=O)N[C@@H](CC(C)C)C(=O)N[C@@H](C)C(=O)NCC(=O)NCC(=O)N1CCC[C@H]1C(=O)N[C@@H](CO)C(=O)N[C@@H](CO)C(=O)NCC(=O)N[C@@H](C)C(=O)N1CCC[C@H]1C(=O)N1CCC[C@H]1C(=O)N1CCC[C@H]1C(=O)N[C@@H](CO)C(N)=O)C(C)C` [Compound 25] (H-Y[Aib]EGTFTSDYSIYLEEQAA[Aib]K([AEEA-AEEA-γGlu-Trx-C20 diacid])FVNWLLAGGPSSGAPPPS-NH2; N-terminus assumed): the EC50 in assay [1] was 0.0029 nM; in assay [2] it was 0.34 nM; in assay [3] (CRE Luc 0% HSA EC50, 0% HSA), 0.0048 nM; in assay [3] (CRE Luc 1% HSA EC50, 1% HSA), 0.602 nM.

With `CC[C@H](C)[C@H](NC(=O)[C@H](CO)NC(=O)[C@H](Cc1ccc(O)cc1)NC(=O)[C@H](CC(=O)O)NC(=O)[C@H](CO)NC(=O)[C@@H](NC(=O)[C@H](Cc1ccccc1)NC(=O)[C@@H](NC(=O)CNC(=O)[C@H](CCC(=O)O)NC(=O)C(C)(C)NC(=O)[C@@H](N)Cc1ccc(O)cc1)[C@@H](C)O)[C@@H](C)O)C(=O)N[C@@H](Cc1ccc(O)cc1)C(=O)N[C@@H](CC(C)C)C(=O)N[C@@H](CCC(=O)O)C(=O)N[C@@H](CCC(=O)O)C(=O)N[C@@H](CCC(N)=O)C(=O)N[C@@H](C)C(=O)N[C@@H](C)C(=O)NC(C)(C)C(=O)N[C@@H](CCCCNC(=O)COCCOCCNC(=O)COCCOCCNC(=O)CC[C@H](NC(=O)CCCCCCCCCCCCCCCCCCC(=O)O)C(=O)O)C(=O)N[C@@H](Cc1ccccc1)C(=O)N[C@H](C(=O)N[C@@H](CC(N)=O)C(=O)N[C@@H](Cc1c[nH]c2ccccc12)C(=O)N[C@@H](CC(C)C)C(=O)N[C@@H](CC(C)C)C(=O)N[C@@H](C)C(=O)NCC(=O)NCC(=O)N1CCC[C@H]1C(=O)N[C@@H](CO)C(=O)N[C@@H](CO)C(=O)NCC(=O)N[C@@H](C)C(=O)N1CCC[C@H]1C(=O)N1CCC[C@H]1C(=O)N1CCC[C@H]1C(=O)N[C@@H](CO)C(N)=O)C(C)C` [Compound 26] (H-Y[Aib]EGTFTSDYSIYLEEQAA[Aib]K([AEEA-AEEA-γGlu-C20 diacid])FVNWLLAGGPSSGAPPPS-NH2; N-terminus assumed), the EC50 in assay [1] was determined as 0.0028 nM; in assay [2], 0.776 nM; in assay [3] (CRE Luc 0% HSA EC50, 0% HSA), 0.0047 nM; in assay [3] (CRE Luc 1% HSA EC50, 1% HSA), 0.37 nM.

Regarding `CC[C@H](C)[C@H](NC(=O)[C@H](CO)NC(=O)[C@H](Cc1ccc(O)cc1)NC(=O)[C@H](CC(=O)O)NC(=O)[C@H](CO)NC(=O)[C@@H](NC(=O)[C@H](Cc1ccccc1)NC(=O)[C@@H](NC(=O)CNC(=O)[C@H](CCC(=O)O)NC(=O)C(C)(C)NC(=O)[C@@H](N)Cc1ccc(O)cc1)[C@@H](C)O)[C@@H](C)O)C(=O)N[C@@H](Cc1ccc(O)cc1)C(=O)N[C@@H](CC(C)C)C(=O)N[C@@H](CCC(=O)O)C(=O)N[C@@H](CCCCN)C(=O)N[C@@H](CCCCNC(=O)COCCOCCNC(=O)COCCOCCNC(=O)CC[C@H](NC(=O)CCCCCCCCCCCCCCCCCCC(=O)O)C(=O)O)C(=O)N[C@@H](C)C(=O)N[C@@H](C)C(=O)NC(C)(C)C(=O)N[C@@H](CCC(=O)O)C(=O)N[C@@H](Cc1ccccc1)C(=O)N[C@H](C(=O)N[C@@H](CC(N)=O)C(=O)N[C@@H](Cc1c[nH]c2ccccc12)C(=O)N[C@@H](CC(C)C)C(=O)N[C@@H](CC(C)C)C(=O)N[C@@H](C)C(=O)NCC(=O)NCC(=O)N1CCC[C@H]1C(=O)N[C@@H](CO)C(=O)N[C@@H](CO)C(=O)NCC(=O)N[C@@H](C)C(=O)N1CCC[C@H]1C(=O)N1CCC[C@H]1C(=O)N1CCC[C@H]1C(=O)N[C@@H](CO)C(N)=O)C(C)C` [Compound 30] (H-Y[Aib]EGTFTSDYSIYLEKK([AEEA-AEEA-γGlu-C20 diacid])AA[Aib]EFVNWLLAGGPSSGAPPPS-NH2; N-terminus assumed), the EC50 worked out at 0.0019 nM in assay [1]; 0.201 nM in assay [2]; 0.0084 nM in assay [3] (CRE Luc 0% HSA EC50, 0% HSA); 0.353 nM in assay [3] (CRE Luc 1% HSA EC50, 1% HSA).

`CC[C@H](C)[C@H](NC(=O)[C@H](CO)NC(=O)[C@H](Cc1ccc(O)cc1)NC(=O)[C@H](CC(=O)O)NC(=O)[C@H](CO)NC(=O)[C@@H](NC(=O)[C@H](Cc1ccccc1)NC(=O)[C@@H](NC(=O)CNC(=O)[C@H](CCC(=O)O)NC(=O)C(C)(C)NC(=O)[C@@H](N)Cc1ccc(O)cc1)[C@@H](C)O)[C@@H](C)O)C(=O)N[C@@H](Cc1ccc(O)cc1)C(=O)N[C@@H](CC(C)C)C(=O)N[C@@H](CCC(=O)O)C(=O)N[C@@H](CCCCN)C(=O)N[C@@H](CCC(N)=O)C(=O)N[C@@H](C)C(=O)N[C@@H](C)C(=O)NC(C)(C)C(=O)N[C@@H](CCCCNC(=O)COCCOCCNC(=O)COCCOCCNC(=O)CC[C@H](NC(=O)[C@H]1CC[C@H](CNC(=O)CCCCCCCCCCCCCCCCCCC(=O)O)CC1)C(=O)O)C(=O)N[C@@H](Cc1ccccc1)C(=O)N[C@H](C(=O)N[C@@H](CC(N)=O)C(=O)N[C@@H](Cc1c[nH]c2ccccc12)C(=O)N[C@@H](CC(C)C)C(=O)N[C@@H](CC(C)C)C(=O)N[C@@H](C)C(=O)NCC(=O)NCC(=O)N1CCC[C@H]1C(=O)N[C@@H](CO)C(=O)N[C@@H](CO)C(=O)NCC(=O)N[C@@H](C)C(N)=O)C(C)C` [Compound 32] (H-Y[Aib]EGTFTSDYSIYLEKQAA[Aib]K([AEEA-AEEA-γGlu-Trx-C20 diacid])FVNWLLAGGPSSGA-NH2; N-terminus assumed): the EC50 stood at 0.0025 nM in assay [1]; 0.0802 nM in assay [2]; 0.0117 nM in assay [3] (CRE Luc 0% HSA EC50, 0% HSA); 0.221 nM in assay [3] (CRE Luc 1% HSA EC50, 1% HSA).

Turning to `CC[C@H](C)[C@H](NC(=O)[C@H](CO)NC(=O)[C@H](Cc1ccc(O)cc1)NC(=O)[C@H](CC(=O)O)NC(=O)[C@H](CO)NC(=O)[C@@H](NC(=O)[C@H](Cc1ccccc1)NC(=O)[C@@H](NC(=O)CNC(=O)[C@H](CCC(=O)O)NC(=O)C(C)(C)NC(=O)[C@@H](N)Cc1ccc(O)cc1)[C@@H](C)O)[C@@H](C)O)C(=O)N[C@@H](Cc1ccc(O)cc1)C(=O)N[C@@H](CC(C)C)C(=O)N[C@@H](CCC(=O)O)C(=O)N[C@@H](CCCCNC(=O)[C@@H](N)CCCCNC(=O)[C@@H](N)CCCCNC(=O)CC[C@H](NC(=O)[C@H]1CC[C@H](CNC(=O)CCCCCCCCCCCCCCCCCCC(=O)O)CC1)C(=O)O)C(=O)N[C@@H](CCC(N)=O)C(=O)N[C@@H](C)C(=O)N[C@@H](C)C(=O)NC(C)(C)C(=O)N[C@@H](CCC(=O)O)C(=O)N[C@@H](Cc1ccccc1)C(=O)N[C@H](C(=O)N[C@@H](CCC(N)=O)C(=O)N[C@@H](Cc1c[nH]c2ccccc12)C(=O)N[C@@H](CC(C)C)C(=O)N[C@@H](CC(C)C)C(=O)N[C@@H](CCC(=O)O)C(=O)NCC(=O)NCC(=O)N1CCC[C@H]1C(=O)N[C@@H](CO)C(=O)N[C@@H](CO)C(=O)NCC(=O)N[C@@H](C)C(N)=O)C(C)C` [Compound 33] (H-Y[Aib]EGTFTSDYSIYLEK([εLys-εLys-γGlu-Trx-C20 diacid])QAA[Aib]EFVQWLLEGGPSSGA-NH2; N-terminus assumed), the EC50 was determined as 0.004 nM in assay [1]; 0.0311 nM in assay [2]; 0.0059 nM in assay [3] (CRE Luc 0% HSA EC50, 0% HSA); 0.741 nM in assay [3] (CRE Luc 1% HSA EC50, 1% HSA).

By EC50 is commonly meant the concentration needed to bring the measured effect to its halfway point. A lower EC50 goes with greater potency.
